Measured values: ChEMBL document CHEMBL3301361, “Experimental in vitro DMPK and physicochemical data on a set of publicly disclosed compounds”
≈ marks a conversion by molar mass, not a printed value.

What was measured:
physchem [1] = settings: octan-1-ol/water
in vitro [2] = settings: hepatocytes
in vitro [3] = settings: human
in vitro [4] = settings: human, plasma, PPB
in vitro [5] = settings: SD, HW or BN, rat, plasma
physchem [6] = settings: pH 7.4 buffer

| SMILES | logD (physchem [1]; pH 7.4, LogD7.4) | hepatocyte CLint (in vitro [2]) [µL/min/1e6 cells] | microsomal CLint (in vitro [3]; liver microsomes) [µL/min/mg] | fraction unbound at 5 h (in vitro [4]) | fraction unbound at 5 h (in vitro [5]) | microsomal CLint (in vitro [3]; microsomes) [µL/min/mg] | logD (physchem [1]; pH 7.4) | solubility thermodynamic (physchem [6]) [µM] |
| --- | --- | --- | --- | --- | --- | --- | --- | --- |
| CCOc1ccc(-n2c([C@@H](C)N(CC3CCN(C)CC3)C(=O)Cc3ccc(F)c(C(F)(F)F)c3)nc3ncccc3c2=O)cc1 | 1.4 | 19.9 | 21.4 | 0.129 | – | – | – | – |
| N#C[C@]1(NC(=O)[C@@H](N)Cc2cccs2)C[C@H]1c1ccccc1 | 1.5 | 136 | 41 | – | 0.294 | – | – | – |
| O=C(c1ccccc1)N1CCC2(CCN(Cc3cccc(Cl)c3)CC2)CC1 | – | < 3 | – | – | 0.166 | 5 | – | – |
| Cc1cccc(CN2CCC3(CC2)CCN(C(=O)c2ccccc2)CC3)c1 | – | 10.2 | 13.5 | – | 0.46 | – | – | – |
| COc1ccccc1CN1C(=O)c2ccccc2C1C(=O)NC1CCC(C)CC1 (configuration not stated) | – | > 150 | > 150 | – | 0.0968 | – | 3.74 | – |
| O=C(CSc1ccccc1)N1CCN(C(=O)c2ccco2)CC1 | 1.6 | 64.6 | 12.3 | 0.266 | – | – | – | – |
| O=S1(=O)CC(O)C(N2CCC(c3ccccc3)CC2)C1 (configuration not stated) | 1.4 | 75.9 | – | 0.569 | – | 5.25 | – | – |
| Cc1oc(-c2ccccc2)cc1C(=O)Nc1cccc(C(=O)O)c1 | 1.63 | 66.1 | 4.17 | 0.002 | – | – | – | – |
| COc1ccc(NC(=O)CCc2c(C)nc3nc(C)nn3c2C)cc1 | 1.4 | 3.09 | – | 0.176 | – | 3.98 | – | – |
| C[C@H](NC(=O)c1cccc2c1N(Cc1ccc(Cl)cc1)CC2)c1ccc(C(=O)O)cc1 | 1.47 | 13.2 | 15.8 | 0.0133 | – | – | – | – |
| O=C(CN1CCOCC1)Nc1ccc(-c2cccc3c(=O)cc(N4CCOCC4)oc23)cc1-c1ccccc1 | – | 123 | – | – | 0.0633 | – | – | – |
| Cc1ccc(CO)cc1N(c1ccnc(Nc2cc(N3CCOCC3)cc(S(C)(=O)=O)c2)n1)C(C)C | – | 53.7 | > 150 | 0.0409 | – | – | – | 1.3 (≈ 0.665 µg/mL) |
| COc1ccnc(CCc2nc3ncccc3[nH]2)c1 | 1.69 | 18.9 | < 3 | – | 0.309 | – | – | – |
| Cc1ccc(C(NC(=O)c2ccccc2O)C(=O)Nc2c(C)cccc2C)s1 (configuration not stated) | 4.05 | 70 | – | – | 0.0075 | – | – | – |
| CSCCC(NC(=O)c1ccccc1)c1nc2ccccc2n1Cc1ccc(C#N)cc1 (configuration not stated) | 4.24 | > 150 | > 150 | – | 0.0245 | – | – | – |
| Cc1ccc(C(=O)NC2CC2)cc1-c1ccc(C(=O)NCC2CC2)nc1 | 3.36 | 21 | – | – | 0.089 | < 3 | – | – |
| Cc1cc(OCCCS(C)(=O)=O)cc(C)c1-c1cccc(COc2ccc3c(c2)OC[C@H]3CC(=O)O)c1 | 2.3 | 10 | – | 0.0036 | – | 5.5 | – | 51.3 (≈ 26.9 µg/mL) |
| COc1ccc2nc(C)cc(N3CC(CNC(=O)C4CC4)OC3=O)c2c1 (configuration not stated) | 1.55 | 19.5 | – | 0.324 | – | 8.91 | – | – |
| COc1cccc2sc(NC(=O)c3ccccc3)nc12 | – | 16 | 74 | – | 0.0101 | – | 3.96 | – |
| C[C@@H](C(=O)NCCN1CCCC1)c1ccc(OS(=O)(=O)C(F)(F)F)cc1 | 1.64 | 6 | < 3 | 0.324 | – | – | – | – |
| CCC(CC)NC(=O)c1cnn(-c2ccccc2)c1NS(=O)(=O)c1ccc(C)cc1 | 0.79 | 47.9 | 54.5 | – | 0.0234 | – | – | – |
| Cc1ccc(S(=O)(=O)Nc2c(C(=O)NCc3ccccc3)cnn2-c2ccccc2)cc1 | 1.9 | 40 | > 150 | – | 0.0066 | – | – | – |
| CCC(CC)NC(=O)c1cnn(-c2ccccn2)c1NS(=O)(=O)c1ccc(C)cc1 | 0.27 | 9.95 | < 3 | – | 0.0499 | – | – | – |
| Cc1ccc(S(=O)(=O)Nc2c(C(=O)NC(C)C)c(C)nn2-c2ccccc2)cc1 | – | 51 | 12 | – | 0.051 | – | – | – |
| Cc1nn(-c2ccccc2)c(NS(=O)(=O)c2cccc(CN3CCOCC3)c2)c1C(=O)N[C@@H](C)C(C)(C)C | – | 10 | 9 | – | 0.16 | – | – | – |
| CC(C(=O)OC1CC[N+](C)(C)CC1)(c1ccccc1)N1CCC(F)(F)CC1 (configuration not stated) | – | 38 | – | – | 0.624 | 41 | – | – |

| SMILES | logD (physchem [1]; pH 7.4, LogD7.4) | hepatocyte CLint (in vitro [2]) [µL/min/1e6 cells] | microsomal CLint (in vitro [3]; liver microsomes) [µL/min/mg] | fraction unbound at 5 h (in vitro [4]) | fraction unbound at 5 h (in vitro [5]) | microsomal CLint (in vitro [3]; microsomes) [µL/min/mg] | logD (physchem [1]; pH 7.4) | solubility thermodynamic (physchem [6]) [µM] |
| --- | --- | --- | --- | --- | --- | --- | --- | --- |
| CN(C)C(C)(C(=O)OC1CC[N+](C)(C)CC1)c1ccccc1 (configuration not stated) | – | 16 | – | – | 0.454 | < 3 | – | – |
| Cc1ccc(S(=O)(=O)Nc2c(C(=O)N[C@@H](C)C(C)(C)C)c(C)nn2C2CCS(=O)(=O)CC2)cc1 | 0.25 | 4 | – | – | 0.258 | < 3 | – | – |
| Cc1ccc(S(=O)(=O)Nc2c(C(=O)N[C@@H](C)C(C)(C)C)c(C)nn2C2CCN(CC(F)(F)F)CC2)cc1 | 1.08 | < 3 | – | 0.117 | – | < 3 | – | – |
| COc1ccc2c(Oc3ccc(CC(=O)Nc4cn(C)nc4C)c(OC)c3)ccnc2c1 | 3.5 | 23.4 | 24.6 | 0.0111 | – | – | – | 10.7 (≈ 4.63 µg/mL) |
| CC(C)(C)NS(=O)(=O)c1cncc(-c2ccc3nc(N)nn3c2)c1 | 1.41 | 20 | – | 0.371 | – | < 3 | – | 63.1 (≈ 21.9 µg/mL) |
| O=C(Nc1nc2ccccc2[nH]1)c1ccccc1 | – | > 150 | 64 | – | 0.126 | – | – | – |
| CCCNC(=O)CSc1ccc(S(=O)(=O)N2CCCC2)cn1 | 1.55 | 55 | – | 0.349 | – | 12.6 | – | – |
| Cc1cn([C@H]2CCCN([C@@H](CC(C)C)c3ccc(C(=O)O)c(Oc4cccc(Cl)c4)c3)C2)c(=O)[nH]c1=O | 0.93 | 9.55 | – | 0.0111 | 0.016 | – | – | – |
| Cc1nocc1C(=O)Nc1ccc(-c2ccccc2OC(F)(F)F)c(N)n1 | 3.7 | 74.1 | < 3 | – | 0.0366 | – | – | – |
| Clc1ccc2ncc(-c3cccc(NC4CNC4)n3)n2c1 | 1.19 | 19.1 | < 3 | 0.163 | – | – | – | – |
| CC(C)(CCCCCOCCc1ccccc1)NCCc1ccc(O)c2nc(O)sc12 | 2.92 | 93 | – | – | 0.0229 | 48.7 | – | – |
| CCOc1ccc(-n2c([C@@H](C)N(Cc3cccnc3)C(=O)Cc3ccc(OC(F)(F)F)cc3)nc3ncccc3c2=O)cc1 | 3.7 | 20 | – | 0.0477 | 0.0293 | – | – | – |
| O=C(NC1CC1)c1cn(-c2cccc(C#Cc3cccnc3)c2)c2ncccc2c1=O | – | 29 | – | – | 0.0082 | 7 | – | – |
| C[C@H](CO)n1ccc2c(NC(=O)Cc3ccc(Cl)c(C(F)(F)F)c3)cccc2c1=O | 3.49 | 29 | < 3 | – | 0.0391 | – | – | – |
| O=C(CC12CC3CC(CC(C3)C1)C2)Nc1cccc2c(=O)n(C(CO)CO)ccc12 | 2.62 | 19 | 42 | – | 0.117 | – | – | – |
| O=C(Nc1cccc(Cl)c1)c1ccccn1 | 3.4 | > 150 | – | – | 0.0488 | – | – | – |
| COc1cc(NC(=O)c2ccccn2)ccc1Cl | – | > 150 | – | – | 0.0447 | – | – | – |
| O=C(Nc1ccc(F)cc1)c1ccc(Cl)[n+]([O-])c1 | 1.38 | 149 | – | 0.465 | – | < 3 | – | 355 (≈ 94.6 µg/mL) |
| CCc1cc2c(cc1N1CCC(N3CCOCC3)CC1)C(C)(C)c1[nH]c3cc(C#N)ccc3c1C2=O [ALECTINIB] | – | 5.01 | – | – | 0.5 | – | – | – |
| COCC1=C(C(=O)O)N2C(=O)[C@@H](NC(=O)/C(=N\OC)c3csc(N)n3)[C@H]2SC1 [CEFPODOXIME] | – | < 3 | – | 0.465 | 0.454 | – | – | – |
| COC(=O)[C@H](c1ccccc1Cl)N1CCc2sccc2C1 [CLOPIDOGREL] | 3.69 | 137 | – | 0.0136 | – | > 150 | – | – |
| C[C@@H]1C[C@H]2[C@@H]3CCC4=CC(=O)C=C[C@]4(C)[C@@]3(F)[C@@H](O)C[C@]2(C)[C@@]1(O)C(=O)CO [DEXAMETHASONE] | 1.87 | 31 | – | 0.285 | 0.126 | – | – | 141 (≈ 55.5 µg/mL) |
| CS(=O)(=O)c1ccc(-c2cnc(N)c(-c3ccc(C(F)(F)F)nc3)c2)cc1 [MMV-048] | 2.4 | 4.79 | 6.17 | 0.194 | – | – | – | – |
| CCOc1ccc(NC(C)=O)cc1 [PHENACETIN] | 1.5 | 26.9 | 24.6 | 0.651 | – | – | – | – |
| CNCc1ccc(-c2[nH]c3cc(F)cc4c3c2CCNC4=O)cc1 [RUCAPARIB] | 1.17 | 12 | – | 0.232 | – | 5.5 | – | 851 (≈ 275 µg/mL) |
| NC(=O)c1ccc(N(C(N)=O)c2c(F)cccc2F)nc1-c1ccc(F)cc1F [VX-702] | 1.6 | < 3 | 5.13 | 0.392 | – | – | – | – |
